Results taken from the supplement of paper PMC10307832.

How the values were obtained:
Assay in all cases: relative viability (nuclei count vs DMSO), 5 days (fraction); higher = more cells survive
Linifanib + Pemetrexed = compound: Cc1ccc(F)c(NC(=O)Nc2ccc(-c3cccc4[nH]nc(N)c34)cc2)c1 [Linifanib] + Nc1nc2[nH]cc(CCc3ccc(C(=O)N[C@@H](CCC(=O)O)C(=O)O)cc3)c2c(=O)[nH]1 [Pemetrexed] (partner 0.2 µM)
In short: (§1)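 Lung cancer cell lines were seeded in 1536-well plates and dosed by pin tool the next day, with either a single drug or a fixed anchor-drug dose combined with five library-drug doses (not always all listed) spaced in √10 steps. Five days later, one step fixed the cells and stained their nuclei (final 0.05% Triton X-100, 1% formaldehyde, 1 ug/ml Hoechst), and nuclei were counted on 4× images. Relative viability is the nuclei count in treated wells divided by the count in vehicle wells, and each value is the median of duplicate plates.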

Linifanib + OSI-027 = compound: Cc1ccc(F)c(NC(=O)Nc2ccc(-c3cccc4[nH]nc(N)c34)cc2)c1 [Linifanib] + COc1cccc2cc(-c3nc([C@H]4CC[C@H](C(=O)O)CC4)n4ncnc(N)c34)[nH]c12 [OSI-027] (partner 0.5 µM)
In short: as §1

Linifanib + Bortezomib = compound: Cc1ccc(F)c(NC(=O)Nc2ccc(-c3cccc4[nH]nc(N)c34)cc2)c1 [Linifanib] + CC(C)C[C@H](NC(=O)[C@H](Cc1ccccc1)NC(=O)c1cnccn1)B(O)O [Bortezomib] (partner 0.002 µM)
In short: as §1

Linifanib + Decitabine = compound: Cc1ccc(F)c(NC(=O)Nc2ccc(-c3cccc4[nH]nc(N)c34)cc2)c1 [Linifanib] + Nc1ncn([C@H]2C[C@H](O)[C@@H](CO)O2)c(=O)n1 [Decitabine] (partner 2 µM)
In short: as §1

Linifanib + Foretinib = compound: Cc1ccc(F)c(NC(=O)Nc2ccc(-c3cccc4[nH]nc(N)c34)cc2)c1 [Linifanib] + COc1cc2c(Oc3ccc(NC(=O)C4(C(=O)Nc5ccc(F)cc5)CC4)cc3F)ccnc2cc1OCCCN1CCOCC1 [Foretinib] (partner 0.25 µM)
In short: as §1

Linifanib + Tozasertib = compound: Cc1ccc(F)c(NC(=O)Nc2ccc(-c3cccc4[nH]nc(N)c34)cc2)c1 [Linifanib] + Cc1cc(Nc2cc(N3CCN(C)CC3)nc(Sc3ccc(NC(=O)C4CC4)cc3)n2)n[nH]1 [Tozasertib] (partner 0.1 µM)
In short: as §1

Cell Line	relative viability (Linifanib + Pemetrexed; first compound 0.03162 µM)	relative viability (Linifanib + Pemetrexed; first compound 0.1 µM)	relative viability (Linifanib + Pemetrexed; first compound 0.3162 µM)	relative viability (Linifanib + OSI-027; first compound 0.03162 µM)	relative viability (Linifanib + OSI-027; first compound 0.1 µM)	relative viability (Linifanib + OSI-027; first compound 0.3162 µM)	relative viability (Linifanib + Bortezomib; first compound 0.03162 µM)	relative viability (Linifanib + Bortezomib; first compound 0.1 µM)	relative viability (Linifanib + Bortezomib; first compound 0.3162 µM)	relative viability (Linifanib + Decitabine; first compound 0.03162 µM)	relative viability (Linifanib + Decitabine; first compound 0.1 µM)	relative viability (Linifanib + Decitabine; first compound 0.3162 µM)	relative viability (Linifanib + Foretinib; first compound 0.03162 µM)	relative viability (Linifanib + Foretinib; first compound 0.1 µM)	relative viability (Linifanib + Foretinib; first compound 0.3162 µM)	relative viability (Linifanib + Tozasertib; first compound 0.03162 µM)	relative viability (Linifanib + Tozasertib; first compound 0.1 µM)	relative viability (Linifanib + Tozasertib; first compound 0.3162 µM)
PC-14	0.145	0.137	0.129	0.844	1.08	0.762	0.924	0.989	0.746	0.231	0.252	0.206	0.976	0.951	0.914	0.499	0.502	0.552
NCI-H2228	0.325	0.355	0.319	0.647	0.747	0.663	0.815	1.32	0.959				1.08	0.889	0.81	0.206	0.233	0.295
HCC-44	0.624	0.552	0.613	0.62	0.596	0.478	0.925	0.915	0.818	0.984	0.862	0.961				0.558	1.05	0.812
NCI-H727				0.642	0.635	0.722	0.934	0.922	0.702	0.883	0.885	0.88	1.03	0.921	0.723	0.535	0.659	0.529
NCI-H520	0.629	0.696	0.635	0.271	0.313	0.3	0.773	1.07	0.497	0.461	0.6	0.542	0.741	1.01	0.708	0.382	0.456	0.418
NCI-H2347	0.434	0.431	0.425	0.476	0.434	0.415	1.11	1.16	0.778	0.622	0.616	0.598	1.09	1.25	0.782	0.615	0.523	0.591
NCI-H647	0.148	0.153	0.203	0.703	0.795	0.587	1.25	1.14	1.07	0.339	0.368	0.481	1.03	1.23	1.12	0.188	0.325	0.352
NCI-H2342	0.791	0.832	0.769	0.638	0.654	0.624				0.732	0.713	0.768	1.18	1.2	1.15	0.544	0.492	0.529
LXF-289	0.97	0.906	0.853	0.905	0.829	0.774	1.04	1.01	0.952	0.376	0.355	0.326	1.09	0.975	0.936	0.185	0.173	0.172
SW 900	0.495	0.496	0.481	0.507	0.808	0.47				0.478	0.515	0.474	0.925	0.987	0.666	0.392	0.614	0.692
COR-L23	0.197	0.19	0.195	0.875	0.786	0.722	1.12	1.17	0.831	0.448	0.455	0.396	0.952	0.951	0.959	0.181	0.228	0.141
NCI-H1915	0.588	0.502	0.502	0.668	0.688	0.616	1.01	0.937	0.98	0.286	0.247	0.257	1.08	1.15	1.04	0.436	0.469	0.399
NCI-H1437	0.323	0.339	0.286	0.881	0.895	0.908	0.644	0.688	0.491	0.62	0.573	0.571	1.27	1.25	1.19	0.375	0.444	0.389
CAL-12T	1.2	1.27	1.18	0.761	0.736	0.73	1.06	1.01	0.8				1.14	1.21	1.14	0.333	0.348	0.355
NCI-H1651	0.648	0.612	0.561	0.624	0.8	0.829	0.967	0.934	0.895	0.616	0.592	0.517	0.774	1.04	0.66	0.618	0.832	0.695
NCI-H1792	1.03	1	0.724	0.526	0.701	0.663	0.93	0.975	0.937	0.525	0.643	0.464						
COR-L 105	1.12	1.02	1.07	0.698	0.874	0.602	0.954	0.851	0.735	0.602	0.73	0.585	0.968	1.08	0.919	0.334	0.321	0.336
NCI-H596	0.461	0.535	0.555	0.625	0.879	0.71	0.899	1.06	1.08	0.915	1.01	1.06	0.981	0.783	0.907	0.798	0.815	0.9

Cell Line	relative viability (Linifanib + Pemetrexed; first compound 0.03162 µM)	relative viability (Linifanib + Pemetrexed; first compound 0.1 µM)	relative viability (Linifanib + Pemetrexed; first compound 0.3162 µM)	relative viability (Linifanib + OSI-027; first compound 0.03162 µM)	relative viability (Linifanib + OSI-027; first compound 0.1 µM)	relative viability (Linifanib + OSI-027; first compound 0.3162 µM)	relative viability (Linifanib + Bortezomib; first compound 0.03162 µM)	relative viability (Linifanib + Bortezomib; first compound 0.1 µM)	relative viability (Linifanib + Bortezomib; first compound 0.3162 µM)	relative viability (Linifanib + Decitabine; first compound 0.03162 µM)	relative viability (Linifanib + Decitabine; first compound 0.1 µM)	relative viability (Linifanib + Decitabine; first compound 0.3162 µM)	relative viability (Linifanib + Foretinib; first compound 0.03162 µM)	relative viability (Linifanib + Foretinib; first compound 0.1 µM)	relative viability (Linifanib + Foretinib; first compound 0.3162 µM)	relative viability (Linifanib + Tozasertib; first compound 0.03162 µM)	relative viability (Linifanib + Tozasertib; first compound 0.1 µM)	relative viability (Linifanib + Tozasertib; first compound 0.3162 µM)
NCI-H2170	0.265	0.276	0.297	0.655	0.747	0.732				0.472	0.448	0.453	0.792	1.01	0.99	0.706	0.716	0.712
SK-LU-1	0.794	1	0.966	0.387	0.472	0.337	1.11	1.2	1.19	0.672	0.645	0.669	0.805	0.816	0.811	0.317	0.331	0.323
NCI-H650	0.899	1.15	0.899	0.493	0.584	0.514	0.816	0.814	0.864	0.371	0.355	0.312	1	1.03	0.994	0.704	0.733	0.73
LOU-NH91	0.416	0.372	0.364	0.697	0.796	0.709	0.47	0.548	0.463	0.812	0.785	0.814	0.942	0.981	0.884	0.713	0.693	0.68
LK-2	0.278	0.318	0.272	0.212	0.21	0.261				0.305	0.365	0.224	1.12	1.33	1.08	0.155	0.177	0.2
LC-2-ad	0.307	0.293	0.269	0.722	0.951	0.855	0.976	1.23	0.98	0.759	0.799	0.836	0.905	0.911	0.904	0.416	0.445	0.472
NCI-H2085	0.907	0.942	0.917	0.842	0.733	0.758	1.07	1.06	0.971	0.535	0.632	0.573	0.979	1.12	0.806	0.793	0.772	0.843
H3255	0.555	0.586	0.529	0.58	0.606	0.583	0.809	0.781	0.728	0.559	0.667	0.615	1	0.946	0.721	0.767	0.662	0.601
UMC-11	0.763	0.772	0.787	0.446	0.465	0.45	0.961	0.731	0.668	0.585	0.562	0.581	0.986	1.16	1.04	0.214	0.201	0.222
NCI-H1395	0.92	1.02	0.825	0.611	0.756	0.573				0.725	0.753	0.698	0.967	1.05	0.998	0.691	0.725	0.729
NCI-H1993	0.642	0.627	0.637	0.495	0.552	0.61	1.1	1.39	1.2	0.631	0.654	0.59	0.807	0.88	0.758	0.62	0.638	0.57
EPLC-272H	0.332	0.358	0.339	0.26	0.327	0.29	1.21	1.04	0.785	0.352	0.435	0.362	0.643	0.657	0.556	0.346	0.209	0.181
NCI-H1975	0.293	0.317	0.278	0.675	0.753	0.706	0.504	0.376	0.389	0.384	0.446	0.413	0.892	1.01	1.02	0.681	0.901	0.722
NCI-H358	0.168	0.166	0.155	0.836	1.06	0.748				0.231	0.218	0.213	0.825	0.794	0.717	0.113	0.112	0.106
ABC-1				0.506	0.433	0.381	0.25	0.343	0.285	0.961	0.942	0.95	1.02	1.08	0.921	0.152	0.173	0.176
SK-MES-1	1	0.964	0.962	0.625	0.613	0.595				0.352	0.408	0.36	0.986	1	0.827	0.882	1.06	0.819
NCI-H1944	0.678	0.705	0.675	0.405	0.462	0.409				0.425	0.449	0.415	0.928	0.889	0.876	0.249	0.261	0.259
NCI-H1793	0.939	1.17	1.07	0.254	0.296	0.267				0.486	0.412	0.586	0.843	0.953	0.734	0.253	0.467	0.372
